We go through 2 compounds from the NIST ThermoML archive (doi:10.1016/j.fluid.2011.07.002).

Numbers after ± are expanded uncertainties.

For this data set the following is noted: Liquid, Closed cell (Static) method.

Regarding `CC12CCC(CC1)C(C)(C)O2` [1,3,3-trimethyl-2-oxabicyclo[2.2.2]octane], the “vapor or sublimation pressure” value (278.15 K) came to 0.071 ± 0.002 kPa; the “vapor or sublimation pressure” value (283.15 K) came out at 0.093 ± 0.002 kPa; the “vapor or sublimation pressure” value (288.15 K) came out at 0.13 ± 0.002 kPa; the “vapor or sublimation pressure” value (293.15 K) was 0.178 ± 0.003 kPa; the “vapor or sublimation pressure” value (298.15 K) came out at 0.253 ± 0.003 kPa; the “vapor or sublimation pressure” value (303.15 K) was 0.346 ± 0.004 kPa. Further, the “vapor or sublimation pressure” value reads like this: (308.15 K) 0.477 ± 0.006 kPa; (313.15 K) 0.627 ± 0.007 kPa; (318.15 K) 0.828 ± 0.009 kPa; (323.15 K) 1.101 ± 0.011 kPa.

Take `CCO` [ethanol]: the “vapor or sublimation pressure” value (278.15 K) was 2.264 ± 0.021 kPa; the “vapor or sublimation pressure” value (283.15 K) is 3.147 ± 0.024 kPa; the “vapor or sublimation pressure” value (288.15 K) was determined as 4.327 ± 0.032 kPa; the “vapor or sublimation pressure” value (293.15 K) is listed as 5.876 ± 0.04 kPa; the “vapor or sublimation pressure” value (298.15 K) was 7.798 ± 0.051 kPa; the “vapor or sublimation pressure” value (303.15 K) amounted to 10.41 ± 0.066 kPa. For the same compound, the “vapor or sublimation pressure” value runs as follows: (308.15 K) 13.71 ± 0.084 kPa; (313.15 K) 17.9 ± 0.1 kPa; (318.15 K) 23.06 ± 0.13 kPa; (323.15 K) 29.46 ± 0.15 kPa.

Usually vapor or sublimation pressure stands for the pressure of vapour in equilibrium with the condensed phase.
